Experimental data from ChEMBL document CHEMBL1144258, “Topochemical model for prediction of anti-HIV activity of HEPT analogs” (Bioorg Med Chem Lett, 2005).

How the values were obtained:
[1] = tested on: Human immunodeficiency virus 1; assay: Inhibitory activity against human immunodeficiency virus type 1 (inactive>0.1); format: functional, organism-based
[2] = tested on: Human immunodeficiency virus 1; assay: Inhibitory activity against human immunodeficiency virus type 1; format: functional, organism-based

IC50 [1] | IC50 [2] | SMILES
Inactive | – | Cc1c(Sc2ccccc2)n(COCc2ccccc2)c(=O)[nH]c1=O
Inactive | – | Cc1c(Sc2ccccc2)n(COCc2cccnc2)c(=O)[nH]c1=O
– | < 100 nM | CCc1c(Sc2cc(C)cc(C)c2)n(COCc2ccco2)c(=O)[nH]c1=O
Inactive | – | Cc1c(Sc2ccccc2)n(COCc2cc3ccccc3o2)c(=O)[nH]c1=O
Inactive | – | Cc1c(Sc2ccccc2)n(COCc2cccs2)c(=O)[nH]c1=O
– | < 100 nM | CCc1c(Sc2ccccc2)n(COCc2cccs2)c(=O)[nH]c1=O
– | < 100 nM | CCc1c(Sc2ccccc2)n(COCc2ccccc2)c(=O)[nH]c1=O
Inactive | – | Cc1c(Sc2ccccc2)n(COCc2ccc([N+](=O)[O-])s2)c(=O)[nH]c1=O
Inactive | – | Cc1c(Sc2ccccc2)n(COCc2ccco2)c(=O)[nH]c1=O
– | < 100 nM | CCc1c(Sc2ccccc2)n(COCc2ccco2)c(=O)[nH]c1=O
– | < 100 nM | CCc1c(Sc2ccccc2)n(COCc2cc3ccccc3o2)c(=O)[nH]c1=O
Inactive | – | CCc1c(Sc2ccccc2)n(COCc2ccc([N+](=O)[O-])s2)c(=O)[nH]c1=O
– | < 100 nM | CCc1c(Sc2cc(C)cc(C)c2)n(COCc2ccccc2)c(=O)[nH]c1=O
– | < 100 nM | CCc1c(Sc2cc(C)cc(C)c2)n(COCc2cccs2)c(=O)[nH]c1=O

Continued, compound first:

SMILES | IC50 [1] | IC50 [2]
Cc1c(SC2CCCCC2)n(COCNC(=O)c2ccccc2)c(=O)[nH]c1=O | Inactive | –
Cc1c(SC2CCCCC2)n(COCN2CCNCC2)c(=O)[nH]c1=O | Inactive | –
Cc1c(SC2CCCCC2)n(COCN(c2ccccc2)c2ccccc2)c(=O)[nH]c1=O | Inactive | –
Cc1c(SC2CCCCC2)n(COCN(CC#N)CC#N)c(=O)[nH]c1=O | Inactive | –
Cc1c(Sc2ccccc2)n(COCC2CCCCC2)c(=O)[nH]c1=O | Inactive | –
Cc1c(SC2CCCCC2)n(COCSc2ccccc2)c(=O)[nH]c1=O | Inactive | –
Cc1c(SC2CCCCN2)n(COCSc2ccccc2)c(=O)[nH]c1=O (stereo not drawn) | Inactive | –
Cc1c(SC2CCCCC2)n(COCBr)c(=O)[nH]c1=O | Inactive | –
Cc1c(SC2CCCCC2)n(COCN(C(=O)c2ccccc2)C(=O)c2ccccc2)c(=O)[nH]c1=O | Inactive | –
Cc1c(SC2CCCCC2)n(COCNC(=O)CNCP(=O)(O)O)c(=O)[nH]c1=O | Inactive | –
Cc1c(SC2CCCCC2)n(COCNC(=O)CP(=O)(O)O)c(=O)[nH]c1=O | Inactive | –
Cc1c(SC2CCCCC2)n(COCI)c(=O)[nH]c1=O | Inactive | –
Cc1c(SC2CCCCC2)n(COCN)c(=O)[nH]c1=O | Inactive | –
Cc1c(SC2CCCCC2)n(COCSc2ccncc2)c(=O)[nH]c1=O | Inactive | –
Cc1c(SC2CCCCN2)n(COCSc2ccncc2)c(=O)[nH]c1=O (stereo not drawn) | Inactive | –
Cc1c(SC2CCCCC2)n(COCN2CCOCC2)c(=O)[nH]c1=O | Inactive | –
Cc1c(SC2CCCCN2)n(COCNc2ccccc2)c(=O)[nH]c1=O (stereo not drawn) | Inactive | –
Cc1c(SC2CCCCC2)n(COCNC(=O)CCCl)c(=O)[nH]c1=O | Inactive | –
Cc1c(SC2CCCCC2)n(COCNc2ccccc2)c(=O)[nH]c1=O | Inactive | –
